Results from ChEMBL document CHEMBL4765375, “Synthesis, antiproliferative activity and SAR analysis of (-)-cleistenolide and analogues” (Eur J Med Chem, 2020).

Columns and labels:
HL-60 = experiment: Antiproliferative activity against human HL-60 cells assessed as reduction in cell viability measured after 6 days by MTT assay; type: functional, cell-based; conditions: HL-60, 144 h
MCF7 = experiment: Antiproliferative activity against human MCF7 cells assessed as reduction in cell viability measured after 6 days by MTT assay; type: functional, cell-based; conditions: MCF7, 144 h
Jurkat = experiment: Antiproliferative activity against human Jurkat cells assessed as reduction in cell viability measured after 6 days by MTT assay; type: functional, cell-based; conditions: 144 h
MRC5 = experiment: Cytotoxicity against human MRC5 cells assessed as reduction in cell viability measured after 6 days by MTT assay; type: cell-based; conditions: MRC5, 144 h
K562 = experiment: Antiproliferative activity against human K562 cells assessed as reduction in cell viability measured after 6 days by MTT assay; type: functional, cell-based; conditions: K562, 144 h
A549 [1] = experiment: Antiproliferative activity against human A549 cells assessed as reduction in cell viability measured after 6 days by MTT assay; type: functional, cell-based; conditions: A549, 144 h
HeLa = experiment: Antiproliferative activity against human HeLa cells assessed as reduction in cell viability measured after 6 days by MTT assay; type: functional, cell-based; conditions: 144 h
MDA-MB-231 [2] = experiment: Antiproliferative activity against human MDA-MB-231 cells assessed as reduction in cell viability measured after 6 days by MTT assay; type: functional, cell-based; conditions: MDA-MB-231, 144 h
Raji [3] = experiment: Antiproliferative activity against human Raji cells assessed as reduction in cell viability measured after 6 days by MTT assay; type: functional, cell-based; conditions: 144 h
A549 [4] = experiment: Potency index, ratio of doxorubicin IC50 to compound IC50 for human A549 cells; type: functional
Raji [5] = experiment: Potency index, ratio of doxorubicin IC50 to compound IC50 for human Raji cells; type: functional
MDA-MB-231 [6] = experiment: Potency index, ratio of doxorubicin IC50 to compound IC50 for human MDA-MB-231 cells; type: functional

Row | SMILES | IC50 (HL-60) | IC50 (MCF7) | IC50 (Jurkat) | IC50 (MRC5) | IC50 (K562) | IC50 (A549 [1]) | IC50 (HeLa) | IC50 (MDA-MB-231 [2]) | IC50 (Raji [3]) | Ratio IC50 (A549 [4]) | Ratio IC50 (Raji [5]) | Ratio IC50 (MDA-MB-231 [6])
1 | O=C1C=C[C@@H](OCc2ccccc2)[C@@H]([C@@H](COC(=O)/C=C/c2ccc([N+](=O)[O-])cc2)OCc2ccccc2)O1 | 2.53 µM | 1.66 µM | 5.71 µM | > 100 µM | 1270 nM | 5.24 µM | 2.65 µM | 1.55 µM | 140 nM | – | – | –
2 | O=C1CC2OCC(O)C(O1)C2O (stereo unspecified) | 1.64 µM | 3.34 µM | 1.65 µM | > 100 µM | 2920 nM | 1.15 µM | 1.17 µM | 31.5 µM | 8120 nM | – | – | –
3 | CC(=O)OC[C@@H](OCc1ccccc1)[C@H]1OC(=O)C=C[C@H]1OCc1ccccc1 | 9.23 µM | 18.9 µM | 14.7 µM | > 100 µM | 880 nM | 15 µM | 5.35 µM | 6.42 µM | 1820 nM | – | – | –
4 | CC(=O)O[C@@H]1C=CC(=O)O[C@@H]1[C@@H](COC(=O)c1ccc([N+](=O)[O-])cc1)OC(C)=O | 1.11 µM | 5.32 µM | 7.45 µM | > 100 µM | 7640 nM | 8.64 µM | 4.65 µM | 4.12 µM | 18500 nM | – | – | –
5 | O=C1C=C[C@@H](OCc2ccccc2)[C@@H]([C@@H](COC(=O)/C=C/c2ccccc2)OCc2ccccc2)O1 | 0.61 µM | 2.57 µM | 4.96 µM | > 100 µM | 1590 nM | 13.2 µM | 9.51 µM | 4.97 µM | 1330 nM | – | – | –
6 | COc1cccc(C(=O)OC[C@@H](OC(=O)c2cccc(OC)c2)[C@H]2OC(=O)C=C[C@H]2OC(=O)c2cccc(OC)c2)c1 | 6.21 µM | 30.2 µM | 21.2 µM | > 100 µM | 4650 nM | 18.2 µM | 7.64 µM | 1.58 µM | 2690 nM | – | – | –
7 | CO[C@H]1CC(=O)O[C@H]([C@@H](COC(=O)/C=C/c2ccc([N+](=O)[O-])cc2)OC(C)=O)[C@@H]1OC(C)=O | 3.11 µM | 5.12 µM | 0.12 µM | > 100 µM | 2380 nM | 0.18 µM | 0.67 µM | 28.6 µM | 5640 nM | 27 | – | –
8 | O=C1C=C[C@@H](OCc2ccccc2)[C@@H]([C@@H](CO)OCc2ccccc2)O1 | 10.2 µM | 17.6 µM | 12.3 µM | > 100 µM | 1420 nM | 12.9 µM | 4.8 µM | 4.79 µM | 10 nM | – | 298 | –
9 | COc1ccc(/C=C/C(=O)OC[C@@H](OCc2ccccc2)[C@H]2OC(=O)C=C[C@H]2OCc2ccccc2)cc1 | 1.57 µM | 1.11 µM | 10.3 µM | > 100 µM | 430 nM | 4.25 µM | 1.08 µM | 3.26 µM | 690 nM | – | – | –
10 | CC(=O)O[C@@H]1C=CC(=O)O[C@@H]1[C@@H](COC(=O)/C=C/c1ccc([N+](=O)[O-])cc1)OC(C)=O | 4.03 µM | 1.4 µM | 0.58 µM | > 100 µM | 2340 nM | 2.26 µM | 1.84 µM | 6.93 µM | 2750 nM | – | – | –
11 | CC(=O)O[C@@H]1C=CC(=O)O[C@@H]1[C@@H](COC(=O)c1ccc(Cl)cc1)OC(C)=O | 32.6 µM | 2.64 µM | 24.4 µM | > 100 µM | 3690 nM | 15.7 µM | 11 µM | 1.85 µM | 1850 nM | – | – | –
12 | O=C1C=C[C@@H](OC(=O)c2ccccc2)[C@@H]([C@@H](COC(=O)c2ccccc2)OC(=O)c2ccccc2)O1 | 8.25 µM | 2.36 µM | 47.2 µM | > 100 µM | 3250 nM | 21.5 µM | 15.5 µM | 52.3 µM | 1080 nM | – | – | –
13 | CC(=O)OC[C@@H](OC(C)=O)[C@H]1OC(=O)C=C[C@H]1OC(C)=O | 29.7 µM | 3.87 µM | 24.6 µM | > 100 µM | 7540 nM | 12.6 µM | 2.64 µM | 7.48 µM | 10000 nM | – | – | –
14 | COc1ccc(/C=C/C(=O)OC[C@@H](OC(C)=O)[C@H]2OC(=O)C=C[C@H]2OC(C)=O)cc1 | 10 µM | 9.31 µM | 2.59 µM | 78 µM | 6960 nM | 1.4 µM | 5.93 µM | 22.8 µM | 10000 nM | – | – | –
15 | CC(=O)O[C@@H]1C=CC(=O)O[C@@H]1[C@@H](COC(=O)/C=C/c1ccc(F)cc1)OC(C)=O | 1.89 µM | 4.26 µM | 5.32 µM | > 100 µM | 3460 nM | 2.12 µM | 1.68 µM | 34.4 µM | 2310 nM | – | – | –
16 | O=C1CC2OCC(OCc3ccccc3)C(O1)C2OCc1ccccc1 (stereo unspecified) | 3.48 µM | 0.21 µM | 1.08 µM | > 100 µM | 8100 nM | 6.24 µM | 8.22 µM | 0.16 µM | 600 nM | – | – | –
17 | CC(=O)O[C@@H]1C=CC(=O)O[C@@H]1[C@@H](COC(=O)c1c(Cl)cc(Cl)cc1Cl)OC(C)=O | – | – | – | – | – | – | – | – | – | – | – | 5
18 | O=C1C=C[C@@H](OCc2ccccc2)[C@@H]([C@@H](COC(=O)/C=C/c2ccc(F)cc2)OCc2ccccc2)O1 | 5.4 µM | 3.01 µM | 4.16 µM | > 100 µM | 1010 nM | 12.1 µM | 7.31 µM | 3.58 µM | 2470 nM | – | – | –
